The target in assay [1] is T1, Neuropeptide Y receptor type 1 (Homo sapiens, UniProt P25929).
T1 sequence (P25929 whole entry): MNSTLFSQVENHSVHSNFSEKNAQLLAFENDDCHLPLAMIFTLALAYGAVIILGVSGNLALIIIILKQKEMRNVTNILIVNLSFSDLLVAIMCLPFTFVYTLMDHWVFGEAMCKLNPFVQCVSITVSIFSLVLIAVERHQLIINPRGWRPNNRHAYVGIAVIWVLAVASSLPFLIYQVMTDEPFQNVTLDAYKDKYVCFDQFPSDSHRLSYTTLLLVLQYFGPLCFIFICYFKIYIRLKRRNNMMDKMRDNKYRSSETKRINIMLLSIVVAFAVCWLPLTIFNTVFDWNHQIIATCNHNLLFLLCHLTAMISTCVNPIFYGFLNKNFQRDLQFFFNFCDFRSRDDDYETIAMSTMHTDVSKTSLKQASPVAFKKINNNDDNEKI
Nature of the assay: Displacement of [3H]UR-MK299 from Y1 receptor in human SK-N-MC cells by radioligand binding assay. The assay is classed as cell-based. Background: Loss of bound radioactivity is the signal in a displacement assay; it reports binding, not function.

In assay [2] the target is T1, Neuropeptide Y receptor type 1. Nature of the assay: Antagonist activity at Y1 receptor in human HEL cells assessed as reduction in pNPY-induced calcium mobilization preincubated for 15 mins followed by pNPY stimulation and measured immediately by Fura-2 dye based fluorescence assay. Format: functional, cell-based. In general terms: A change in cytosolic calcium serves as a functional read-out for many receptors and channels.

The target of assay [3] is T2, Neuropeptide Y receptor type 1 (Homo sapiens) (UniProt P25929).
T2 sequence (whole entry): T1 sequence (P25929 whole entry)
The note with it: HEL, filed as antagonist, time 15.0 min.

Each structure is given as a SMILES string.

As for `N/C(=N/C(=O)NCCNC(=O)CF)NCCC[C@@H](NC(=O)C(c1ccccc1)c1ccccc1)C(=O)NCc1ccc(O)cc1`, the Ki in assay [1] is 0.0316 nM. Moreover, the IC50 in assay [2] is 0.055 nM.

`CC(=O)NCCNC(=O)/N=C(/N)NCCC[C@@H](NC(=O)C(c1ccccc1)c1ccccc1)C(=O)NCc1ccc(O)cc1` gave a Ki in assay [1] of 0.0589 nM.

With `N/C(=N/C(=O)NCCNC(=O)C1CCCC1)NCCC[C@@H](NC(=O)C(c1ccccc1)c1ccccc1)C(=O)NCc1ccc(O)cc1`, the Ki in assay [1] was 52.5 nM. In addition, in assay [3], the pKb amounted to 9. Moreover, the IC50 in assay [2] was 7.59 nM.

For the molecule `N/C(=N/C(=O)NCCNC(=O)CBr)NCCC[C@@H](NC(=O)C(c1ccccc1)c1ccccc1)C(=O)NCc1ccc(O)cc1`, the Ki in assay [1] was 0.126 nM. In assay [3], this molecule yielded a pKb of 11.1. Besides, the IC50 in assay [2] was 0.0617 nM.

Regarding `CC(C)(C)C(=O)NCCNC(=O)/N=C(/N)NCCC[C@@H](NC(=O)C(c1ccccc1)c1ccccc1)C(=O)NCc1ccc(O)cc1`, the Ki in assay [1] was 45.7 nM. The molecule also displayed a pKb in assay [3] of 8.71. In assay [2], the IC50 is 14.5 nM.

For `C=CC(=O)NCCNC(=O)/N=C(/N)NCCC[C@@H](NC(=O)C(c1ccccc1)c1ccccc1)C(=O)NCc1ccc(O)cc1`, the Ki in assay [1] was 0.112 nM. Further, the pKb in assay [3] is 10.6. In addition, in assay [2], the IC50 is 0.186 nM.

In turn, `N/C(=N/C(=O)NCCNC(=O)C(c1ccccc1)c1ccccc1)NCCC[C@@H](NC(=O)C(c1ccccc1)c1ccccc1)C(=O)NCc1ccc(O)cc1` showed a Ki in assay [1] of 295 nM. Further, in assay [3], the pKb amounted to 7.16. In addition, in assay [2], the IC50 is 525 nM.

`N/C(=N/C(=O)NCCNC(=O)C1CCC1)NCCC[C@@H](NC(=O)C(c1ccccc1)c1ccccc1)C(=O)NCc1ccc(O)cc1` gave a Ki in assay [1] of 1.1 nM. Besides, in assay [3], the pKb stood at 10.5. For the same molecule, the IC50 in assay [2] is 0.24 nM.

Regarding `N/C(=N/C(=O)NCCNC(=O)CO)NCCC[C@@H](NC(=O)C(c1ccccc1)c1ccccc1)C(=O)NCc1ccc(O)cc1`, affinity in assay [1] was put at a Ki of 0.145 nM. Also, in assay [3], the pKb came out at 10.9. Further, the IC50 in assay [2] was 0.0912 nM.

As to `N/C(=N/C(=O)NCCNC(=O)c1ccc(F)cc1)NCCC[C@@H](NC(=O)C(c1ccccc1)c1ccccc1)C(=O)NCc1ccc(O)cc1`, the affinity in assay [1], expressed as Ki, was 295 nM. In addition, the pKb in assay [3] stood at 8.67. Also, the IC50 in assay [2] is 16.2 nM.

`Cc1cc(/C=C/C=C/c2ccc(N(C)C)cc2)cc(C)[n+]1CCNC(=O)/N=C(/N)NCCC[C@@H](NC(=O)C(c1ccccc1)c1ccccc1)C(=O)NCc1ccc(O)cc1` showed a Ki in assay [1] of 102 nM.

`CC(C)C(=O)NCCNC(=O)/N=C(/N)NCCC[C@@H](NC(=O)C(c1ccccc1)c1ccccc1)C(=O)NCc1ccc(O)cc1` showed a Ki in assay [1] of 0.309 nM. In addition, the pKb in assay [3] was found to be 11.1. Moreover, the IC50 in assay [2] is 0.0661 nM.

In assay [1], `CCC(=O)NCCCNC(=O)/N=C(/N)NCCC[C@@H](NC(=O)C(c1ccccc1)c1ccccc1)C(=O)NCc1ccc(O)cc1` gave a Ki of 0.0741 nM.

On to `N/C(=N/C(=O)NCCNC(=O)c1ccccc1)NCCC[C@@H](NC(=O)C(c1ccccc1)c1ccccc1)C(=O)NCc1ccc(O)cc1`, for which the Ki in assay [1] was 56.2 nM. For the same molecule, in assay [3], the pKb is 8.82. Besides, the IC50 in assay [2] was 11.5 nM.

As for `N/C(=N/C(=O)NCCNC(=O)C1CC1)NCCC[C@@H](NC(=O)C(c1ccccc1)c1ccccc1)C(=O)NCc1ccc(O)cc1`, in assay [1], the Ki is 1.17 nM. Further, in assay [3], the pKb came to 10.5. Also, the IC50 in assay [2] was 0.24 nM.

For the molecule `N/C(=N/C(=O)NCCNC(=O)C1CCCCC1)NCCC[C@@H](NC(=O)C(c1ccccc1)c1ccccc1)C(=O)NCc1ccc(O)cc1`, in assay [1], the affinity, expressed as Ki, was 380 nM. In assay [3], this molecule yielded a pKb of 8.39. The IC50 in assay [2] is 30.9 nM.

In the case of `N/C(=N/C(=O)NCCNC(=O)CCCl)NCCC[C@@H](NC(=O)C(c1ccccc1)c1ccccc1)C(=O)NCc1ccc(O)cc1`, in assay [1], the Ki is 0.38 nM. Besides, the 50% inhibitory concentration (IC50) in assay [2] was 0.589 nM.

For the molecule `N/C(=N/C(=O)NCCNC(=O)CCl)NCCC[C@@H](NC(=O)C(c1ccccc1)c1ccccc1)C(=O)NCc1ccc(O)cc1`, the Ki in assay [1] is 0.0525 nM. For the same molecule, the IC50 in assay [2] was 0.0794 nM.

The molecule `N/C(=N/C(=O)NCCNC(=O)C(F)F)NCCC[C@@H](NC(=O)C(c1ccccc1)c1ccccc1)C(=O)NCc1ccc(O)cc1` showed a Ki in assay [1] of 0.0676 nM. For the same molecule, in assay [2], the IC50 was 0.11 nM.

`N/C(=N/C(=O)NCCNC(=O)C(F)(F)F)NCCC[C@@H](NC(=O)C(c1ccccc1)c1ccccc1)C(=O)NCc1ccc(O)cc1` had a Ki in assay [1] of 0.0708 nM. Besides, the IC50 in assay [2] was 0.126 nM.

In turn, `CC(=O)NCCCNC(=O)/N=C(/N)NCCC[C@@H](NC(=O)C(c1ccccc1)c1ccccc1)C(=O)NCc1ccc(O)cc1` had a Ki in assay [1] of 0.0631 nM.

Turning to `N/C(=N/C(=O)NCCNC(=O)Cc1ccccc1)NCCC[C@@H](NC(=O)C(c1ccccc1)c1ccccc1)C(=O)NCc1ccc(O)cc1`, the affinity in assay [1], expressed as Ki, was 302 nM. In assay [3], the pKb stood at 7.9. Also, the IC50 in assay [2] was 95.5 nM.

Broadly, the Ki is a measure of affinity in units of concentration, obtained from inhibition or displacement. A lower Ki goes with higher affinity. In general, IC50 refers to the concentration needed to halve the response being measured. For orientation: pKb means the negative decadic logarithm of the Kb, by convention in mol/L.

The record behind these values is ChEMBL document CHEMBL4699401, “Argininamide-type neuropeptide Y Y1 receptor antagonists: the nature of Nomega-carbamoyl substituents determines Y1R binding mode and affinity” (RSC Med Chem, 2020).
